Results taken from paper PMC4520450, “Procyanidins Negatively Affect the Activity of the Phosphatases of Regenerating Liver” (PLoS ONE, 2015).

Experiments:
TCPTP = target: T1, TCPTP (Homo sapiens, UniProt P17706); assay: DiFMUP assay for PTP1B, TCPTP, VHR; assay type: biochemical; conditions: 12.5 μM, 30 min incubation, 20 μM DiFMUP, 50 nM enzyme
T1 construct: made in house
T1 sequence (P17706 1-415): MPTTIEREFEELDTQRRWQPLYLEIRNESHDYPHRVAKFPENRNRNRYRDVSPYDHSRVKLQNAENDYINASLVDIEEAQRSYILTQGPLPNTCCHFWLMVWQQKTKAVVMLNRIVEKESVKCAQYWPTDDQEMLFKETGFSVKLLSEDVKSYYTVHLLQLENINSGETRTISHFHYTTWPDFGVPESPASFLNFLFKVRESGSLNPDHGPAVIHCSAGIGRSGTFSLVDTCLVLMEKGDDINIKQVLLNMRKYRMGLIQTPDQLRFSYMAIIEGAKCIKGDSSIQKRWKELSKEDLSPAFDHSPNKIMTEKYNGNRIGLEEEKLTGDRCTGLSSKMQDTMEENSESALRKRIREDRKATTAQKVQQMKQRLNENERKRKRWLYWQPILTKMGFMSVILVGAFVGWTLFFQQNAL
Experimental: (§1) As an extension of our studies we included PTP1B, VHR and TCPTB as examples for phosphotyrosine specific phosphatases in our activity studies, because tea extracts were reported to inhibit PTP1B [43]. For comparison with PRL-3, these proteins were used in the same concentration (50 nM) as PRL-3 and DiFMUP was also used as a substrate in 20 μM concentration. The enzymes were incubated with three different concentrations of procyanidin C2 (9) for 30 min before the measurement.
(§2) Fig 3 Effect of procyanidin C2 (9) on the phosphatase activity of VHR, PTP1B and TCPTP using DiFMUP as a substrate. Proteins were incubated with compound 9 for 30 min., phosphatase activity measurements were performed using 20 μM DiFMUP. Phosphatase activity in the absence of compound 9 was set as 100%. Data represent means ± standard errors of the mean (n = 3).
(§3) DiFMUP assay for PTP1B, TCPTP, VHR: In a final reaction volume of 100 μL the PTPs (50 nM final concentration) were incubated with […] of procyanidin C2 (9) for 30 minutes at 25°C. The buffer conditions were pH 7.2, 4-/2-Hydroxyethyl)-1-piperazineethanesulfonic acid (HEPES) 25 mM, EDTA 2.5 mM, DTT 2.0 mM, NaCl 124.4 mM. After the incubation time 20 μL DiFMUP was added to reach a final concentration of 20 μM. On a Tecan safire2 (Tecan, Salzburg, Austria) plate reader dephosphorylation of the substrate to its fluorescent product was monitored by following the emission at […] for 10 minutes. All measurements were done in triplicates, and the experiments were repeated at least three times. The slopes of the initial phases were obtained by linear regression of the data points. The normalized reaction rates were plotted versus the log of the inhibitor concentrations and the IC50 values were obtained by fitting the curves using the one site competition model of GraphPad Prism (GraphPad Software, Version 5). Due to the high water solubility of 9 DMSO was not required and measurements were done in assay buffer only.

VHR = target: T2, VHR (Homo sapiens, UniProt P51452); assay: DiFMUP assay for PTP1B, TCPTP, VHR; assay type: biochemical; conditions: 12.5 μM, 30 min incubation, 20 μM DiFMUP, 50 nM enzyme
T2 construct: made in house
T2 sequence (P51452 whole entry, species assumed): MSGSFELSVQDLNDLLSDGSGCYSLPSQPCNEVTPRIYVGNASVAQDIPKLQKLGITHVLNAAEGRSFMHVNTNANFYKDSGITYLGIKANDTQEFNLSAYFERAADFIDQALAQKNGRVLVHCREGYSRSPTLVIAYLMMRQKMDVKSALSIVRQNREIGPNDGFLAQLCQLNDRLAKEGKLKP
Experimental: as §1, §2, §3

[1] = Cytotoxicity by flow cytometry with propidium iodide; assay type: cell-based; conditions: human
Source text: To study the effects of procyanidins on PRL-1 and PRL-3 in cells, the trimeric catechin (procyanidin C2, 9) was chosen as a representative example due to its strong inhibitor activity in vitro toward both PRL-s and its smaller size compared to the higher oligomers, which could influence cell permeability. HEK293 cells stably overexpressing PRL-1 and PRL-3 were chosen as model cell line. As a control cell line, HEK293 cells transfected with the empty vector were utilized (see the Experimental Procedures). To avoid false positive results due to cell death, first cell viability was studied in a concentration dependent manner by using flow cytometry. Therefore, cells were treated with different concentrations of compound 9 for 24 h, harvested, and then the ratio of living to dead cells was determined using propidium iodide (Fig 5).
Fig 5 Cytotoxicity of procyanidin C2 (9) in HEK293 cells. Cells were treated with 50, 150 or 300 μM of 9 in the growth medium for 24 h. Cells were harvested, resuspended in PBS buffer and incubated with propidium iodide (1 mg/mL) for 5 min on ice. 10,000 events were set for the number of living cells. The number of living cells was divided by the number of total cells counted and given as percentage of cell survival. Data represent means ± standard errors of the mean (n = 3).
Fig 7 A) Cytotoxicity of procyanidin B3 (8) in HEK293 cells. Cells were treated with 50, 75 or 100 μM of 8 in the growth medium for 24 h. Cells were harvested, resuspended in PBS buffer and incubated with propidium iodide (1 mg/mL) for 5 min on ice. 10,000 events were set for the number of living cells. The number of living cells was divided by the number of total cells counted and given as percentage of cell survival. Data represent means ± standard errors of the mean (n = 3). B) Wound healing abilities of PRL-1 or PRL-3 overexpressing or empty vector control HEK293 cell lines were analyzed in the presence of compound 8 or medium only. Cells were seeded at a concentration of 800,000 cells per insert and procyanidin B3 (8) was added at a concentration of 50 and 75 μM. Speed of migration is shown for combined data from different replicates, as mean ± SD (n = 40–77). Two-sided t-tests with Welsh correction were performed for p < 0.05. ns = not significant;***: < 0.001; **: < 0.01; *: < 0.05.
Flow cytometry was used to determine the ratio of living to dead cells compared to the control. HEK293 empty vector and PRL-3 overexpressing cells were seeded in a transparent 6-well plate with 400,000 cells/well in DMEM medium without Phenol red, supplemented with 10% FBS, 1% glutamine and 0.2% hygromycin and blasticidin. For induction of PRL-3 expression, 0.1% tetracycline was added. After 24 hours incubation at 37°C, procyanidins 8 or 9 dissolved in growth medium and growth medium as a control were added to the respective wells in the indicated final concentrations and incubated for another 24 hours. Then, the medium was removed and collected in Eppendorf tubes, centrifuged for 5 min at 500 rpm and the supernatant removed. Then 1 mL of PBS (10%) was added to each well and the cells detached with a cell scraper. […] After thorough mixing the cell suspension was injected into a LSR- Fortessa Bench Top Analyzer (Beckton Dickinson) and the number of living and dead cells counted. […] The number of living cells was divided by the number of total cells counted and given as percentage of cell survival.

PRL-3 = target: T3, PRL-3 (Homo sapiens, UniProt O75365); assay: DiFMUP phosphatase activity assay for PRLs; assay type: biochemical; conditions: 20 μM DiFMUP
T3 construct: His-TEV (cleaved yes); made in house
T3 sequence (O75365 whole entry): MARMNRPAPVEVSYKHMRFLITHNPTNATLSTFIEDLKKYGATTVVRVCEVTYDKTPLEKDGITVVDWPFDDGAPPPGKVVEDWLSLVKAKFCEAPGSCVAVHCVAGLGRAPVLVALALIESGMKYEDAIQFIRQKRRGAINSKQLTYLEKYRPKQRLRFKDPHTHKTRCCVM

Oc1cc(O)c2c(c1)O[C@H](c1ccc(O)c(O)c1)[C@@H](O)[C@@H]2c1c(O)cc(O)c2c1O[C@H](c1ccc(O)c(O)c1)[C@@H](O)[C@@H]2c1c(O)cc(O)c2c1O[C@H](c1ccc(O)c(O)c1)[C@@H](O)C2 [Procyanidin C2 (9), Procyanidin C2]
TCPTP phosphatase activity compared to the control (TCPTP): 75–85% | VHR phosphatase activity compared to the control (VHR): 75–85% | viability at 24 h, 150 µM [1]: ~50% | viability at 24 h, 300 µM [1]: ~50% | PRL-3 phosphatase activity compared to the control (PRL-3; 12.5 μM, 30 min incubation, 50 nM enzyme): 75–85% | inhibition of PRL-3 activity (PRL-3; 25 μM and 50 μM): inhibited in a concentration dependent manner
